US20230131966A1, “FUNGICIDAL AMIDES” (FMC Corporation, priority 2020, published 2023)

How the values were obtained:
Format in all cases: in vivo
Botrytis cinerea = assay: Test E: tomato Botrytis control on tomato seedlings; conditions: 250 ppm, 100 = 100% disease control, 0 = no control
Phakopsora pachyrhizi = assay: Test A: Asian soybean rust control on soybean seedlings; conditions: 250 ppm; soybean seedlings; 100 = 100% disease control, 0 = no control
Phytophthora infestans = assay: whole plant or invertebrate; conditions: 250 ppm; tomato seedlings; 100 = 100% disease control, 0 = no control
[1] = system: Erysiphe graminis f. sp. tritici; assay: Test G: wheat powdery mildew control on wheat seedlings; conditions: 250 ppm, 100 = 100% disease control, 0 = no control
Plasmopara viticola = assay: Test D: grape downy mildew control on grape seedlings; conditions: 250 ppm, 100 = 100% disease control, 0 = no control
[2] = system: Puccinia recondita f. sp. tritici; assay: Test B: wheat leaf rust control on wheat seedlings; conditions: 250 ppm; wheat seedlings; 100 = 100% disease control, 0 = no control
Zymoseptoria tritici = assay: Test C: wheat leaf blotch control on wheat seedlings; conditions: 250 ppm; wheat seedlings; 100 = 100% disease control, 0 = no control

| SMILES | Test E disease control rating (Botrytis cinerea) | Test A disease control rating (Phakopsora pachyrhizi) | Test F disease control rating (Phytophthora infestans) | Test G disease control rating [1] | Test D disease control rating (Plasmopara viticola) | Test B disease control rating [2] | Test C disease control rating (Zymoseptoria tritici) |
| --- | --- | --- | --- | --- | --- | --- | --- |
| COc1ccnc(C(=O)N[C@@H](C)C(=O)OC(C)c2cccc(-c3ccccc3)c2)c1O (single isomer, unassigned) [Compound 3] | 16% | 100% | 0% | 0% | 32% | 99% | 83% |
| COc1ccnc(C(=O)N[C@@H](C)C(=O)OC(C)c2cccc(-c3ccccc3)c2)c1O (single isomer, unassigned) [Compound 4] | 31% | 99% | 0% | 0% | 56% | 41% | 28% |
| COc1cccc(C(=O)N[C@@H](C)C(=O)OC(C)c2ccccc2Cc2ccccc2)c1OC(C)=O (single isomer, unassigned) [Compound 7] | 0% | 0% | 0% | 0% | 35% | 0% | 0% |
| COc1ccnc(C(=O)N[C@@H](C)C(=O)OC(C)c2ccccc2Cc2ccc(F)cc2)c1OC(C)=O (single isomer, unassigned) [Compound 11] | 0% | 0% | 0% | 0% | 30% | 19% | 13% |
| COc1ccnc(C(=O)N[C@@H](C)C(=O)OC(C)c2ccccc2Cc2ccc(F)cc2)c1OC(C)=O (single isomer, unassigned) [Compound 22] | 0% | 100% | 0% | 0% | 61% | 99% | 85% |
| COc1ccnc(C(=O)N[C@@H](C)C(=O)OC(C)c2ccc(F)cc2Cc2ccccc2)c1O (single isomer, unassigned) [Compound 23] | 0% | 100% | 0% | 0% | 44% | 97% | 95% |
| COc1ccnc(C(=O)N[C@@H](C)C(=O)OC(C)c2ccc(F)cc2Cc2ccccc2)c1O (single isomer, unassigned) [Compound 24] | 0% | 97% | 0% | 0% | 61% | 68% | 5% |
| COc1ccnc(C(=O)N[C@@H](C)C(=O)OC(C)c2ccc(F)cc2Cc2ccccc2)c1OC(C)=O (single isomer, unassigned) [Compound 37] | 0% | 100% | 0% | 0% | 29% | 99% | 89% |
| COc1ccnc(C(=O)N[C@@H](C)C(=O)OC(C)c2ccc(F)cc2Cc2ccccc2)c1OC(C)=O (single isomer, unassigned) [Compound 38] | 0% | 0% | 0% | 0% | 44% | 41% | 53% |
| COc1ccnc(C(=O)N[C@@H](C)C(=O)OC(C)c2ccccc2Cc2ccc(F)cc2)c1O (single isomer, unassigned) [Compound 39] | 57% | 100% | 0% | 0% | 16% | 100% | 87% |
| COc1ccnc(C(=O)N[C@@H](C)C(=O)OC(C)c2ccccc2Oc2ccc(F)cc2)c1OC(C)=O (single isomer, unassigned) [Compound 57] | 0% | 99% | 0% | 0% | 16% | 98% | 88% |
| COc1ccnc(C(=O)N[C@@H](C)C(=O)OC(C)c2ccc(F)cc2Cc2ccc(F)cc2)c1OC(C)=O (single isomer, unassigned) [Compound 58] | 0% | 98% | 0% | 0% | 27% | 99% | 86% |
| COc1ccnc(C(=O)N[C@@H](C)C(=O)OC(C)c2cccc3ccccc23)c1OC(C)=O (single isomer, unassigned) [Compound 116] | 0% | 100% | 0% | 0% | 55% | 100% | 95% |
| COc1ccnc(C(=O)N[C@@H](C)C(=O)OC(C)c2ccc(CC3CCCCC3)cc2)c1OC(C)=O (single isomer, unassigned) [Compound 128] | 0% | 95% | 0% | 0% | 57% | 90% | 83% |
| COc1ccnc(C(=O)N[C@@H](C)C(=O)OC(C)c2ccc(CC3CCCCC3)cc2)c1OC(C)=O (single isomer, unassigned) [Compound 129] | 0% | 100% | 0% | 0% | 32% | 100% | 91% |
| CCC(OC(=O)[C@H](C)NC(=O)c1nccc(OC)c1OC(C)=O)c1ccc(C2CCCCC2)cc1 (single isomer, unassigned) [Compound 130] | 0% | 96% | 0% | 0% | 9% | 74% | 12% |
| CCC(OC(=O)[C@H](C)NC(=O)c1nccc(OC)c1OC(C)=O)c1ccc(C2CCCCC2)cc1 (single isomer, unassigned) [Compound 131] | 0% | 100% | 0% | 89% | 6% | 96% | 87% |
| CCC(OC(=O)[C@H](C)NC(=O)c1nccc(OC)c1OCOC(=O)C(C)C)c1ccc(C2CCCCC2)cc1 (single isomer, unassigned) [Compound 132] | 0% | 75% | 0% | 0% | 29% | 68% | 30% |
| CCC(OC(=O)[C@H](C)NC(=O)c1nccc(OC)c1OCOC(=O)C(C)C)c1ccc(C2CCCCC2)cc1 (single isomer, unassigned) [Compound 133] | 0% | 100% | 0% | 0% | 24% | 99% | 93% |
| CCC(OC(=O)[C@H](C)NC(=O)c1nccc(OC)c1OCOC(C)=O)c1ccc(C2CCCCC2)cc1 (single isomer, unassigned) [Compound 134] | 0% | 97% | 0% | 0% | 33% | 74% | 64% |
| CCC(OC(=O)[C@H](C)NC(=O)c1nccc(OC)c1OCOC(C)=O)c1ccc(C2CCCCC2)cc1 (single isomer, unassigned) [Compound 135] | 0% | 100% | 0% | 86% | 29% | 98% | 81% |
| COc1ccnc(C(=O)N[C@@H](C)C(=O)OC(C)c2ccc(C3CCCCC3)cc2)c1OCOC(=O)C(C)C (single isomer, unassigned) [Compound 144] | 0% | 77% | 0% | 0% | 35% | 86% | 93% |
| COc1ccnc(C(=O)N[C@@H](C)C(=O)OC(C)c2ccc(C3CCCCC3)cc2)c1OCOC(=O)C(C)C (single isomer, unassigned) [Compound 145] | 0% | 100% | 0% | 0% | 22% | 99% | 94% |
